Laboratory results taken from publication PMC7725003, “Systematically Studying the Optimal Amino Acid Distribution Patterns of the Amphiphilic Structure by Using the Ultrashort Amphiphiles” (Frontiers in Microbiology, 2020).
Where no end group is shown, it is not given here.

How the values were obtained:
S. aureus 29213 [1] = assay: Time-kill kinetics; assay type: cell-based, Staphylococcus aureus; conditions: 1 × MIC concentration (Figure 5 legend: 1× MBC); mean of three independent experiments
Description: The kinetics of the sterilization activity of the peptide was further evaluated. […] The results of the kinetic were the mean values of three independent experiments, and each independent experiment contained three technical replicates.

E. coli K88 = tested on: E. coli K88
Outline: (§1)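 Peptides were serially diluted in 0.2% BSA and added to mid-logarithmic cells diluted in MHB to 0.5–1 × 10^6 CFU mL^–1. Assays followed an adapted NCCLS protocol.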

E. coli K99 = tested on: E. coli K99
Outline: as §1

E. faecalis 29212 = assay type: cell-based, Enterococcus faecalis; conditions: 29212, 24 h
Outline: (§2)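 Using mid-log cultures at 0.5–1 × 10^6 CFU mL^–1 in MHB, peptides serially diluted in 0.2% BSA were tested over 24 h at 37°C. Inhibition of 95% (A492) set the MIC; >99.9% killing after overnight agar plating set the MBC.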

E. coli ATCC 25922 [2] = assay: Outer membrane permeabilization (NPN uptake); assay type: cell-based, Escherichia coli; conditions: at 16 μM peptide
Description: Mid-log phase E. coli ATCC 25922 cells (OD600 = 0.2) were incubated with NPN (10 μM) in 5 mM HEPES buffer (pH 7.4, containing 5 mM glucose) for 30 min. The background fluorescence was recorded for subtraction (excitation λ = 350 nm, emission λ = 420 nm) with an F-4500 fluorescence spectrophotometer (Hitachi, Japan). Subsequently, 100 μL of cell suspension was mixed with equal volumes of the peptide solution at concentrations that ranged from 1 to 64 μM in a sterile 96-well black plate. The fluorescence was recorded over time until no further fluorescence increase was detectable. Each test was performed independently in triplicate, and the results were converted to the percentage of NPN uptake using the equation:
where Fobs is the observed fluorescence at a given peptide concentration, F0 is the initial fluorescence of NPN with microbial cells in the absence of peptide, and F100 is the fluorescence of NPN with microbial cells upon the addition of 10 μg/mL polymyxin B (Sigma) (for bacteria) as a positive control.

[3] = tested on: Listeria monocytogenes CGMCC 1.1075; assay type: cell-based; conditions: CGMCC 1.1075, 24 h
Outline: as §2

Gram-negative bacteria = conditions: geometric mean of MBCs, 9 Gram-negative strains (Table 2)
E. coli ATCC 25922 [4] = assay: Salt sensitivity assay (MIC); assay type: cell-based, Escherichia coli; conditions: for MIC, FeCl3: 4 μM FeCl3; for MIC, NH4Cl: 6 μM NH4Cl; for MIC, ZnCl2: 8 μM ZnCl2; for MIC, MgCl2: 1 mM MgCl2; for MIC, CaCl2: 2 mM CaCl2; for MIC, KCl: 4.5 mM KCl; for MIC, NaCl: 150 mM NaCl; for MIC, Control: no added salt, three independent assays
Outline: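 Peptides diluted serially in 0.2% BSA solution were combined at identical volumes with mid-logarithmic E. coli ATCC 25922 in MHB (0.5–1 × 10^6 CFU mL^–1) in 96-well plates, with or without a physiological salt. Plates were incubated for 24 h at 37°C. MIC was the lowest concentration inhibiting 95% of growth, measured as absorbance at 492 nm on a microplate reader.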

S. pullorum 7913 = assay type: cell-based, Salmonella pullorum; conditions: 7913, 24 h
Outline: as §2

Gram-positive bacteria = conditions: geometric mean of MBCs, 7 Gram-positive strains (Table 2)
S. aureus 29213 [5] = assay type: cell-based, Staphylococcus aureus; conditions: 29213, 24 h
Outline: as §2

S. aureus 25923 = assay type: cell-based, Staphylococcus aureus; conditions: 25923, 24 h
Outline: as §2

E. coli 25922 = assay type: cell-based, Escherichia coli; conditions: 25922, 24 h
Outline: as §2

E. coli O78 = assay type: cell-based, Escherichia coli; conditions: O78, 24 h
Outline: as §2

E. coli UB1005 = assay type: cell-based, Escherichia coli; conditions: UB1005, 24 h
Outline: as §2

B. subtilis 63501 = assay type: cell-based, Bacillus subtilis; conditions: 63501, 24 h
Outline: as §2

[6] = MHB, 24 h 37°C, 95% growth inhibition
[7] = value in brackets, >99.9% of cells killed

Substance | time to clear off the growth of 99.99% of bacteria (S. aureus 29213 [1]) [min] | MBC (E. faecalis 29212) [µM] | MIC (E. faecalis 29212) [µM] | outer membrane permeabilization (NPN uptake) (E. coli ATCC 25922 [2]) | MBC [3] [µM] | MIC [3] [µM] | MIC, FeCl3 (E. coli ATCC 25922 [4]) [µM] | MIC, NH4Cl (E. coli ATCC 25922 [4]) [µM] | MIC, ZnCl2 (E. coli ATCC 25922 [4]) [µM] | MIC, MgCl2 (E. coli ATCC 25922 [4]) [µM] | MIC, CaCl2 (E. coli ATCC 25922 [4]) [µM] | MIC, KCl (E. coli ATCC 25922 [4]) [µM] | MIC, NaCl (E. coli ATCC 25922 [4]) [µM] | MIC, Control (E. coli ATCC 25922 [4]) [µM] | MBC (S. pullorum 7913) [µM] | MIC (S. pullorum 7913) [µM] | MBC (S. aureus 29213 [5]) [µM] | MIC (S. aureus 29213 [5]) [µM] | MBC (S. aureus 25923) [µM] | MIC (S. aureus 25923) [µM] | other results
RLRLRLRLL-NH2 [L5] | ≤ 0.08 | 32 | 16 | approximately 50% | 8 | 4 | 0.5 | 0.5 | 0.5 | 0.5 | 2 | 0.5 | 4 | 2 | 4 | 2 | 16 | 8 | 16 | 8 | MIC (E. coli K88; [6]): 2 µM; MBC (E. coli K88; [7]): 4 µM; MIC (E. coli K99; [6]): 4 µM; MBC (E. coli K99; [7]): 8 µM; GM MBC (Gram-negative bacteria): 6.35 µM; GM MBC (Gram-positive bacteria): 11.89 µM; MBC (E. coli 25922): 4 µM; MIC (E. coli 25922): 2 µM; MBC (E. coli O78): 4 µM; MIC (E. coli O78): 2 µM; MBC (E. coli UB1005): 8 µM; MIC (E. coli UB1005): 4 µM; MBC (B. subtilis 63501): 2 µM; MIC (B. subtilis 63501): 1 µM
RWRWRWRWW-NH2 [W5] | ≤ 3 | 8 | 4 | approximately 100% | 4 | 2 | 4 | 4 | 4 | 2 | 4 | 4 | 4 | 2 | 4 | 2 | 4 | 2 | 4 | 2 | MBC (E. coli 25922): 4 µM; MIC (E. coli 25922): 2 µM; MBC (E. coli O78): 8 µM; MIC (E. coli O78): 4 µM; MBC (E. coli UB1005): 4 µM; MIC (E. coli UB1005): 2 µM; MBC (B. subtilis 63501): 2 µM; MIC (B. subtilis 63501): 1 µM
